Where two headings read alike, the source gives them in different places.
Assays:
[1] = test system: L. infantum chagasi promastigotes; test: microbe, parasite or virus in culture; conditions: Leishmania infantum; for IC50: 48 h
Protocol: (§1) Subsequently, 0.5 mg/mL of 3-(4,5-dimethylthiazol-2-yl)-2,5-diphenyltetrazolium bromide (MTT, Sigma-Aldrich®, St. Louis, MO, USA) was added and the incubations continued for an additional 4 h at 26 °C. The purple formazan product that was formed by the action of mitochondrial enzymes in living cells was solubilized by the addition of acidic isopropanol, and the absorbance at 570 nm was measured using a microplate reader spectrophotometer EZ Read 400 from Biochrom. […] The 50% inhibitory concentration (IC50) value for each compound was determined. The survival rate was calculated according to the formula: OD in treated group/OD of untreated group x 100. The 50% inhibitory concentration (IC50) value for each compound was determined by nonlinear regression analysis using GraphPad Prism 5.03 software.

[2] = test system: L. amazonensis promastigotes; conditions: for L. amazonensis mortality in the screening test: 100 µM screening concentration
Protocol: as §1

[3] = test system: L. amazonensis amastigotes in RAW 264.7 macrophages; test: Intramacrophage anti-amastigote activity; assay type: cell-based, Leishmania (L.) amazonensis
Protocol: The anti-amastigote assay was performed as previously described ([13]). Macrophages RAW 264.7 cell line (ATCC) were cultured in DMEM plus 10% fetal bovine serum (FBS), penicillin (100 U/mL) and streptomycin (100 µg/mL) until reaching 90% confluence, when were distributed into 96-well microplates at a concentration of 2 x 10^5 cells/well in the presence of DMEM. […] The leishmanicidal activity of macrophages was assessed by determining the number of viable parasites (4 replicates) using a hemocytometer.

human erythrocytes [4] = conditions: for RBC50 (CI 95%): concentration of compound that causes 50% of red blood cell hemolysis: 60 min
Protocol: Triton X-100 1% was used as positive control. The hemolytic assay was performed according to the procedure used by ([13]). […] The microplate was incubated at 37°C under agitation (90 rpm) for 60 min. Then, the suspension was centrifuged at 3,000 rpm for 5 min, and the absorbance of the supernatant was measured at 540 nm using a spectrophotometer EZ Read 400 from Biochrom. Triton X-100 1% and PBS were used as positive and negative control, respectively. […] The selectivity index (SI) (CC50 or RBC50/IC50 against L. amazonensis) were determined for each compound.

[5] = test system: Macrophages RAW 264.7 cell line
[6] = test system: L. amazonensis promastigotes; test: microbe, parasite or virus in culture; conditions: Leishmania amazonensis, 48 h
Protocol: as §1

in vitro = conditions: mouse; for CC50 at 48 h: CC50 (CI 95%): concentration of compound that causes 50% of macrophage mortality
[7] = test system: L. amazonensis promastigotes; test: Mitochondrial membrane potential (rhodamine 123, flow cytometry); assay type: cell-based, Leishmania (L.) amazonensis; conditions: IS 2-fold IC50, 6 h; amphotericin B 0.4 µM; hydrogen peroxide 2 mM
From the text: A total of 30,000 events were acquired in the region that corresponded to the parasites. Histograms were build using the CellQuest Pro software (Joseph Trotter, Scripps Research Institute, La Jolla, CA, USA).

[8] = test system: L. amazonensis promastigotes; set-up: method as in PMID 30077823; conditions: read-out: IC50 for L. amazonensis promastigotes (previous study); cited from earlier work
[9] = test system: L. infantum chagasi promastigotes; conditions: read-out: IC50 (CI 95%): concentration of compound that causes 50% of L. infantum chagasi promastigotes mortality, 48 h, MTT
Protocol: as §1

[10] = test system: L. amazonensis promastigotes; test: Cell membrane integrity (propidium iodide, flow cytometry); assay type: cell-based, Leishmania (L.) amazonensis; conditions: 1.8 µM (IC50), 48 h
Protocol: After 48 h at 26°C, the parasites were harvested and washed twice with PBS, resuspended and incubated with 100 μL of propidium iodide (PI – Sigma–Aldrich) 50 μg/mL at 26°C for 15 min. Following, each sample was completed with 400 μL of PBS and a total of 20,000 events were acquired and analyzed on BD FACScalibur flow cytometer and CellQuest Pro software. PI fluorescence intensity was quantified as the percentage of the fluorescence compared with untreated promastigotes ([30]). Results were obtained from two independent experiments performed in triplicate.

[11] = test system: Macrophages RAW 264.7 cell line; conditions: read-out: CC50 towards macrophages (previous study); cited from earlier work
human erythrocytes [12] = conditions: cited from earlier work
[13] = test system: L. amazonensis promastigotes; test: Detection of reactive oxygen species production (DCF-DA, flow cytometry); assay type: cell-based, Leishmania (L.) amazonensis; conditions: IS 2-fold IC50, 6 h; amphotericin B 0.4 µM; hydrogen peroxide 2 mM
Protocol: ROS generation was quantified using the dye 2′,7′-dichlorofluorescein diacetate (DCF-DA, Sigma-Aldrich) and flow cytometer analysis ([13], [30], [31]). […] Then, cells were washed with PBS and incubated with 0.5 mL of 10 µM DCF-DA for 30 min at room temperature. After being washed with PBS, cells were resuspended in 0.5 mL PBS and analysed using a BD FACSCalibur (Becton–Dickinson, Rutherford, NJ, USA) flow cytometer and CellQuest Pro software (Joseph Trotter, Scripps Research Institute, La Jolla, CA, USA) using the blue argon-ion 488 nm laser with the FL1 filter channel. A total of 30,000 events were acquired in the region that corresponded to living parasite.

[14] = read-out: IC50 (CI 95%): concentration of compound that causes 50% of L. infantum chagasi promastigotes mortality, promastigotes, 48 h, MTT
[15] = Leishmania amazonensis, RAW264.7, 48 h, read-out: IC50 (CI 95%): concentration of compound that causes 50% of L. amazonensis amastigotes mortality, infected RAW 264.7 macrophages, 48 h
[16] = read-out: mortality of L. amazonensis promastigotes, 5 µM, 48 h

SMILES | IC50 [2] | L. amazonensis mortality in the screening test ([2]; 48 h) | IC50 [3, 15] | SI: selectivity index, ratio of CC50 for RBC hemolysis/IC50 for L. amazonensis amastigotes (human erythrocytes [4]) | SI: selectivity index, ratio of CC50 for RBC hemolysis/IC50 for L. amazonensis promastigotes (human erythrocytes [4]) | SI: selectivity index, ratio of CC50 for macrophage/IC50 for L. amazonensis amastigotes [5] | SI: selectivity index, ratio of CC50 for macrophage/IC50 for L. amazonensis promastigotes [5] | mortality at 5 µM [6, 16] | mitochondrial membrane potential (ΔΨm) alteration [7] | IC50 [9] | further results
CCCCCCCCCCn1cc[n+](CCCCCCCCCC)c1C.[Cl-] [(C10)2MImCl, 1,3-Didecyl-2-methylimidazolium chloride] | 1.9 µM | 100% | 0.2 µM | 105 | 11 | 82 | 8.6 | 97% | significant ΔΨm depolarization | – | IC50 [1, 14]: 16.5 µM; RBC50 (CI 95%): concentration of compound that causes 50% of red blood cell hemolysis (human erythrocytes [4]; human red blood cells, 37°C): 20.9 (20-21.9) µM; viability at 48 h (in vitro): 94%; CC50 at 48 h (in vitro; RAW cells, 48 h, MTT): 16.4 µM
CCCCn1cc[n+](C)c1.CS(=O)(=O)[O-] [C4MImMeS, 1-Butyl-3-methylimidazolium methanesulfonate] | – | without activity | – | – | – | – | – | – | – | – | –
CCCCCCCCCCn1cc[n+](C)c1 [C10MImCl, 1-decyl-3-methylimidazolium chloride] | – | – | – | – | – | – | – | – | – | – | IC50 [1, 14]: 115 µM; IC50 [8]: 2.31 µM
CCCCCCCCCCn1cc[n+](C)c1.CS(=O)(=O)[O-] [C10MImMeS, 1-decyl-3-methylimidazolium methanesulfonate] | 11.6 µM | 100% | 0.3 µM | – | > 8.6 | 256 | 6.6 | 60% | ΔΨm hyperpolarization | > 100 µM | concentration up to which no significant hemolysis (human erythrocytes [4]; human erythrocytes): up to 40 µM; RBC50 (CI 95%): concentration of compound that causes 50% of red blood cell hemolysis (human erythrocytes [4]; human red blood cells, 37°C): > 100 µM; concentration up to which more than 90% of the macrophages kept alive ([5]; mouse, 48 h): up to 50 µM; viability at 48 h (in vitro): 89%; CC50 at 48 h (in vitro; RAW cells, 48 h, MTT): 76.9 µM
CCCCCCCCCCCCCCCCn1ccnc1 [C16Im, 1-hexadecylimidazole] | – | 100% | 0.2 µM | > 500 | > 6.8 | 275 | 3.8 | – | – | – | IC50 [1, 14]: 8.3 µM; concentration causing significant parasite mortality ([2]; L. amazonensis promastigotes, 48 h): ≥ 10 µM; RBC50 (CI 95%): concentration of compound that causes 50% of red blood cell hemolysis (human erythrocytes [4]; human): > 100 µM; CC50 at 48 h (in vitro): 54.9 µM
CCCCCCCCCCCCCCCCn1cc[n+](C)c1C.[Cl-] [C16M2ImCl, 1-hexadecyl-2,3-dimethylimidazolium chloride] | 4.1 µM | 100% | 0.2 µM | 108 | 5.3 | 99 | 4.8 | 85% | significant ΔΨm depolarization | – | IC50 [1, 14]: 15.4 µM; RBC50 (CI 95%): concentration of compound that causes 50% of red blood cell hemolysis (human erythrocytes [4]; human): 21.6 (20.8-22.5) µM; CC50 at 48 h (in vitro; RAW cells, 48 h, MTT): 19.8 µM
CCCCCCCCCCCCCCCCn1c(C)c(C)[n+](C)c1C.[Cl-] [C16M4ImCl, 1-hexadecyl-2,3,4,5-tetramethylimidazolium chloride] | – | 100% | – | 78 | 8.7 | 89 | 10 | – | significant ΔΨm depolarization | – | IC50 ([1]; read-out: IC50 (CI 95%): concentration of compound that causes 50% of L. infantum chagasi promastigotes mortality): 14.9 µM; IC50 ([3]; Leishmania amazonensis, RAW264.7, 48 h, read-out: IC50 (CI 95%): concentration of compound that causes 50% of L. amazonensis amastigotes mortality): 0.2 µM; RBC50 (CI 95%): concentration of compound that causes 50% of red blood cell hemolysis (human erythrocytes [4]; human red blood cells, 37°C): 15.6 (14.5-16.8) µM; L. amazonensis integrity (panoptic stain) [10]: total lysis of the parasites; IC50 ([6]; read-out: IC50 (CI 95%): concentration of compound that causes 50% of L. amazonensis promastigotes mortality): 1.8 µM; mortality at 5 µM ([6]; read-out: mortality of L. amazonensis promastigotes): 95%; CC50 (in vitro): 17.8 µM; viability (in vitro): 90%
CCCCCCCCCCCCCCCCn1cc[n+](C)c1.[Br-] [C16MImBr, 1-hexadecyl-3-methylimidazolium bromide] | 6 µM | 100% | – | 114 | 3.8 | 80 | 2.7 | – | significant ΔΨm depolarization | 29.7 µM | mortality of L. amazonensis promastigotes ([2]; 5 µM, 48 h): 42%; IC50 ([3]; read-out: IC50 (CI 95%): concentration of compound that causes 50% of L. amazonensis amastigotes mortality, infected RAW 264.7 macrophages, 48 h): 0.2 µM; RBC50 (CI 95%): concentration of compound that causes 50% of red blood cell hemolysis (human erythrocytes [4]; human red blood cells, 37°C): 22.8 (21.7-24) µM; CC50 at 48 h (in vitro; RAW cells, 48 h, MTT): 16 µM
CCCCCCCCCCCCCCCCn1cc[n+](C)c1 [C16MImCl, 1-hexadecyl-3-methylimidazolium chloride] | – | – | – | – | – | – | – | – | – | 9.9 µM | IC50 [8]: 1.23 µM
CCCCCCCCCCCCCCCCn1cc[n+](C)c1.CS(=O)(=O)[O-] [C16MImMeS, 1-hexadecyl-3-methylimidazolium methanesulfonate] | – | – | – | – | – | – | – | – | – | 10.8 µM | CC50 [11]: 11.5 µM; IC50 [8]: 0.75 µM; RBC50 erythrocytes (previous study) (human erythrocytes [12]): 36.9 µM
CCCCCCCCCCCCCCCCn1cc[n+](C)c1 [C16MImNTf2, 1-hexadecyl-3-methylimidazolium bis(trifluoromethylsulfonyl)imide] | – | – | – | – | – | – | – | – | – | – | IC50 [8]: 1.64 µM
CCCCCCCCCCCCCCCCn1cc[n+](C)c1 [C16MImPF6, 1-hexadecyl-3-methylimidazolium hexafluorophosphate] | 6.9 µM | 100% | 0.3 µM | 82.7 | 3.6 | 56 | 2.4 | 37% | significant ΔΨm depolarization | 26.3 µM | RBC50 (CI 95%): concentration of compound that causes 50% of red blood cell hemolysis (human erythrocytes [4]; human): 24.8 (22.9-26.8) µM; CC50 at 48 h (in vitro): 16.8 µM
CCCCCCCCCCCCCCCC[n+]1ccccc1.O.[Cl-] [C16PyrCl, 1-hexadecylpyridinium chloride monohydrate, reference compound] | – | 100% | – | – | – | – | – | – | – | – | –
OO [H2O2, hydrogen peroxide, reference compound] | – | – | – | – | – | – | – | – | mitochondrial depolarization | – | ROS production [13]: significant elevation in ROS production
C[C@@H]1[C@H](O)[C@@H](C)/C=C/C=C/C=C/C=C/C=C/C=C/C=C/[C@H](O[C@@H]2O[C@H](C)[C@@H](O)[C@H](N)[C@@H]2O)C[C@@H]2O[C@](O)(C[C@@H](O)C[C@@H](O)[C@H](O)CC[C@@H](O)C[C@@H](O)CC(=O)O[C@H]1C)C[C@H](O)[C@H]2C(=O)O [amphotericin B, reference compound] | 0.4 µM | – | – | – | – | – | – | 100% | mitochondrial depolarization | – | mortality at 5 µM ([1]; read-out: mortality of L. infantum chagasi promastigotes): 100%; ROS production [13]: significant elevation in ROS production

Reference: paper PMC9886892, “Imidazolium salts as an alternative for anti-Leishmania drugs: Oxidative and immunomodulatory activities” (Frontiers in Immunology, 2023)
